From a melting point compilation (Tetko et al.; mined from patent text by program, amines drawn as free bases though some values may be those of a salt) come the findings set out here.

Some results are limits rather than exact numbers.

Compound `Cc1ccc(C2c3c(C)c(N4CCN(c5ccc(F)cc5)CC4)c(C)c(C)c3OC2(C)C)cc1` (configuration not stated) gave a melting point of 159 to 162 °C.

On to `CN(C)c1ncnc2c1ncn2C1CC(F)C(CO)O1` (configuration not stated), for which the melting point was in the range of 105 to 107 °C.

For the compound `COc1cc(OC)nc(NC(=O)NS(=O)(=O)c2cccc3cccnc23)n1`, the melting point was 175 to 177 °C.

Turning to `CC(=O)c1cc2c(c(O)c1O)OC(C)(C)CC2C` (configuration not stated), the melting point lay in the range of 153 to 154 °C.

As for `Cc1ccc(CN2C(=O)C(CCO)Oc3ccccc32)cc1` (configuration not stated), the melting point fell in the range of 92 to 94 °C.

`O=C(NCCc1c(Cl)cccc1Cl)c1c(Cl)ccc2nc(N3CCC(C(=O)O)CC3)ccc12`: the melting point was in the range of 262 to 264 °C.

On to `Nc1ccc2c(c1)C(=O)NC(C(Cl)(Cl)Cl)O2` (configuration not stated), for which the melting point lay in the range of 172 to 174 °C.

`CC(C)CCC[C@H](NC(=O)[C@@H](N)Cc1c[nH]cn1)[C@@H](O)C1CCCCC1` showed a melting point of 126 to 130 °C.

In turn, `O=C(O)c1ccc(C(c2ccccc2)c2ccc(Cl)cc2)cn1` (configuration not stated) gave a melting point of 200 to 203 °C.

Compound `COC(=O)CCc1oc(-c2ccc3c(c2)OCO3)nc1-c1ccc(Cl)cc1` gave a melting point of 123 to 124 °C.

Turning to `CCCCOCCOc1ccc(-c2ccc3c(c2)C=C(C(=O)Nc2ccc(S(=O)Cc4ncnn4C)cc2)CCN3CC(C)C)cc1` (configuration not stated), the melting point lay in the range of 135 to 138 °C.

Regarding `CC(C)(C)c1cc(C(=O)OCCC(=O)Oc2ccc(Cl)c([N+](=O)[O-])c2)cc(C(C)(C)C)c1O`, the melting point fell in the range of 106 to 108 °C.

Take `O=C(O)CCC(=O)c1ccc2c(c1)oc1ccccc12`: the melting point is 208 to 210 °C.

The compound `CCO[C@@H]1C[C@@H](C(=O)NC)N(S(=O)(=O)c2ccc(Cl)c(COc3cccc4c(-n5ccnc5)cc(C)nc34)c2Cl)C1` registered a melting point of 80 °C.

With `COC(=O)c1cccc(-c2ccc3c(c2)NCC3)c1`, the melting point was 104 to 105 °C.

Take `CCOC(=O)C1=Cc2cc(Cl)cc(-c3ccccc3)c2OC1C(F)(F)F` (configuration not stated): the melting point was in the range of 196 to 198 °C.

The compound `CC(C)(C)OC(=O)N1CCN2C(=O)OC(c3ccccc3)(c3ccccc3)C2C1` (configuration not stated) yielded a melting point of 151 to 152 °C.

`O=c1nc(-c2ccccc2)c2cc(Cl)ccc2n1CC(F)(F)F` had a melting point of 184 to 185 °C.

As for `CCc1noc(-c2cn(-c3cccc(Oc4ccc(N)cc4)c3)cn2)n1`, the melting point lay in the range of 131 to 133 °C.

For `c1ccc(CNc2nc3ccccc3s2)cc1`, the melting point was determined as 159 °C.

Regarding `CC(C)(C)c1cc(-c2c(NC(=O)Nc3ccc(F)cc3F)c(=O)oc3ccc(Cl)cc23)cc(C(C)(C)C)c1O`, the melting point was in the range of 244 to 246 °C.

The compound `Cc1ccc2cccc(OCc3c(Cl)ccc(S(=O)(=O)N4CCCC4C(=O)NCc4ccccc4)c3Cl)c2n1` (configuration not stated) returned a melting point of 143 °C.

For `CCOC(=O)c1sc(Oc2ccc3c(c2)OCC3)c2c1CCc1cnn(C)c1-2`, the melting point lay within 137 to 138 °C.

`O=C1c2ccccc2OC1Br` (configuration not stated) had a melting point of 60 °C.

Compound `COc1ccc2c(c1)c(CC(=O)NCC(C)(C)S)c(C)n2C(=O)c1ccc(Cl)cc1` had a melting point of 177 to 178 °C.

`O=C(O)CC(CCc1ccc(O)cc1)CC(=O)O` returned a melting point of 142 to 144 °C.

The compound `Cc1cn(-c2cccc(C(=O)CC(=O)Nc3cc(-c4ccccc4F)ccc3NC(=O)OC(C)(C)C)c2)c(C)n1` had a melting point of 145 °C.

As to `COc1ccc(C2=NN(SC(C)C)C(=O)C2(SC(C)C)SC(C)C)cc1`, the melting point was 52 to 54 °C.

As to `CCOC(=O)CONC(=S)Nc1cc(Cl)ccc1C`, the melting point fell in the range of 117 to 119 °C.

Regarding `Cn1c(CC(=O)O)ccc1C(=O)c1ccc(C(F)(F)F)cc1`, the melting point lay within 152 to 154 °C.

In the case of `C=CCC1(c2ccccc2)OC(C(=O)OC)Oc2ccc(Cl)cc21` (configuration not stated), the melting point came to 70 °C.

`CN1CCC(NCc2ccccc2)(c2ccccc2)C(O)C1` (configuration not stated): the melting point was in the range of 162 to 164 °C.

For the compound `O=C(CCCCCN1CCC(c2cccc(C(F)(F)F)c2)CC1)N1Cc2ccccc2C1`, the melting point is 71 °C.

`COc1cc2c(N3CCN(C(=O)Nc4ccc(Oc5ccccc5)cc4)CC3)ncnc2c(OC)c1OC` returned a melting point of 83 to 84 °C.

`CCOC(=O)C1CCN(c2nc(C)nc3c2C(C)C(=O)N3c2c(C)cc(Br)cc2C)CC1` (configuration not stated) had a melting point of 159 to 161 °C.

On to `CC(=O)Nc1ccccc1N1CCc2ccccc21`, for which the melting point lay within 125 to 128 °C.

Compound `O=C(O)C(c1ccccc1)N1C(=O)c2ccccc2C1=O` (configuration not stated) returned a melting point of 175 to 177 °C.

The compound `NCC1CCn2c(c(C3=C(c4cccc(C(F)(F)F)c4)C(=O)NC3=O)c3ccccc32)C1` (configuration not stated) had a melting point of 202 to 204 °C.

`O=[N+]([O-])c1ccc(Oc2ccc(-n3cncn3)cc2)cc1` had a melting point of 131 to 132 °C.

In turn, `NC(=N[N+](=O)[O-])NCCSCc1csc(NC(N)=NCC(F)(F)Cl)n1` registered a melting point of 112 to 116 °C.

As for `O=[N+]([O-])c1ccc(NN=C2c3ncc(Cl)cc3C=CC2Cl)c([N+](=O)[O-])c1` (configuration not stated), the melting point was greater than 280 °C.

Compound `CCC(C)(C)c1c(OCc2ncnn2C)nn2c(-c3c(F)ccc(F)c3F)nncc12` yielded a melting point of 122 to 125 °C.

Turning to `N#CC1=C(COCc2ccccc2)Nc2n[nH]cc2C1c1ccccc1Cl` (configuration not stated), the melting point fell in the range of 165 to 166 °C.

The compound `O=C(O)CCCCOc1ccc2oc3ccccc3c(=O)c2c1` displayed a melting point of 151 to 152 °C.

Turning to `O=C(Cn1cc(-c2ccccc2)c(-c2ccccc2)n1)NCCN1CCCCC1`, the melting point fell in the range of 120 to 124 °C.

`CC(=O)SCC(Cc1ccc(F)cc1)C(=O)Nc1cccc(C(=O)O)c1` (configuration not stated) showed a melting point of 172 to 174 °C.

As for `COc1ccc(C(=O)Nc2ccccc2)cc1NC(=S)Nc1ccc(F)cc1`, the melting point was in the range of 182 to 183 °C.

`O=COC(CCl)(CC(Cl)(Cl)Cl)c1cc(Cl)cc(Cl)c1` (configuration not stated) returned a melting point of 115 to 117 °C.

Compound `CN1CCC23CC(=O)C=CC2C1Cc1cccc(Oc2nnnn2-c2ccccc2)c13` (configuration not stated) gave a melting point of 172 to 174 °C.

`Cc1cc(C#N)cn2cc(-c3ccc(Br)o3)nc12` registered a melting point of 204 to 205 °C.

In turn, `O=c1oc(-c2ccccc2)cc(O)c1S(=O)(=O)Cc1ccccc1` gave a melting point of 152 to 153 °C.

`COc1c(CCC(=O)O)cccc1Oc1ccccc1C` had a melting point of 71 to 75 °C.

For the compound `CCCC(Cl)C(=O)c1ccccc1` (configuration not stated), the melting point was 71 to 72 °C.

Take `COC(=O)c1nsnc1N`: the melting point was 142 to 143 °C.

`CS(=O)(=O)N(Cc1cccnc1)c1ccccc1F`: the melting point stood at 120 °C.

The compound `Fc1cccc(F)c1C(C1=NOCCO1)N1CCc2sccc2C1` (configuration not stated) returned a melting point of 151 to 153 °C.

As for `N#CC1(Nc2ccccc2)CCN(C2CCCc3ccccc32)CC1` (configuration not stated), the melting point lay within 152 to 153 °C.

Take `O=C(Nc1c(F)cc(F)cc1F)N(Cc1ccc2c(c1)Cc1ccccc1-2)C1CCCCC1`: the melting point fell in the range of 162 to 165 °C.

In turn, `COc1cccc(OC)c1Cn1cnc2ccc(O)cc2c1=O` had a melting point of 243 to 245 °C.

Regarding `Cc1cccc(NC(=O)NCC(=O)N(CC(=O)OC(C)(C)C)c2ccc([N+](=O)[O-])cc2)c1`, the melting point worked out at 152 °C.

In the case of `CS(=O)(=O)Nc1ccc(C(=N)Nc2cc(Cl)cc(NC(=O)/C=C/c3ccccc3Cl)c2)cc1`, the melting point lay in the range of 158 to 160 °C.

On to `CCOC(=O)c1c(C(=O)Nc2ccc(Cl)cc2C)cccc1[N+](=O)[O-]`, for which the melting point lay within 164 to 165 °C.

The compound `CCOC(=O)[C@H](COCc1ccccc1)NC(=O)C(C)(C)NC(=O)[C@@H](SC(C)=O)C(C)C` showed a melting point of 55 to 57 °C.

`O=C(Nc1cc(C(F)(F)F)cc(C(F)(F)F)c1)c1ccccc1O` registered a melting point of 196 to 198 °C.

The compound `O=C(O)c1ccc(-c2nc(-c3ccc(C(F)(F)F)cc3)co2)cc1` had a melting point of 258 to 259 °C.

With `COc1c(F)cc2c(=O)c(C(=O)O)cn(-c3cc(N)c(F)cc3F)c2c1C`, the melting point is greater than 280 °C.

The compound `Cc1ccc(O)c2[nH]c(Cc3cccnc3)nc12` came in with a melting point of 264 to 268 °C.

With `O[C@H]1CCC[C@H]1Oc1cccc2onc(OCC3CCN(CC4(O)CCOCC4)CC3)c12` (relative stereo), the melting point was found to be 141 °C.

The compound `Cc1cc(-c2nc3cc4c(cc3[nH]2)C(C)(C)CC(=O)N4)[nH]n1` had a melting point of 242 to 245 °C.

The compound `Cc1c(SCCCCSCCn2c([N+](=O)[O-])cnc2C)ccnc1CO` gave a melting point of 86 to 87 °C.

In the case of `O=c1n(CCCCN2CCN(c3cccc(Cl)c3)CC2)nc2n1-c1ccccc1OC2`, the melting point fell in the range of 132 to 134 °C.

Turning to `COc1ccc(-c2nn(C3CCCC3)c3c(C(F)(F)F)cccc23)c(OC)c1`, the melting point was in the range of 79 to 80 °C.

Regarding `N#CCc1ccc(CCOc2ccc([N+](=O)[O-])cc2)nc1`, the melting point was 94 to 95 °C.

Turning to `NC(=O)C1=CN(CCCC(=O)NCCc2ccccc2)C=CC1`, the melting point is 55 to 60 °C.

Regarding `COc1ccc(N2CCN(n3ccnc3SC)CC2)cc1`, the melting point worked out at 140 °C.

In turn, `Fc1ccc(-c2ncnc(C(F)(F)F)c2Cl)c(F)c1` showed a melting point of 61 to 63 °C.

Consider `CCn1cc(-c2ccccc2)c(=O)c(-c2cccc(C(F)(F)F)c2)c1`, for which the melting point lay in the range of 98 to 100 °C.

As for `O=C(O)Cc1cc2c(s1)-c1ccccc1SC2`, the melting point fell in the range of 106 to 110 °C.

`CCCOc1ccccc1-c1nc2nnc(OC)nc2c(=O)[nH]1` gave a melting point of 221 to 222 °C.

`COc1ccc(-c2ccc(Cl)cc2)cc1COCCc1cccc(NS(=O)(=O)C(F)(F)F)c1`: the melting point was 99 to 101 °C.

`COC(C)(C)C(=O)C(Oc1ccc(I)cc1)n1cncn1` (configuration not stated) registered a melting point of 81.5 to 82.5 °C.

In turn, `Cn1c(=O)n(C(=O)OC(C)(C)C)c2ccc(Br)cc21` had a melting point of 98 to 99 °C.

On to `CCOC(=O)c1ccc2c(SC(=O)N(C)C)cccn2c1=O`, for which the melting point lay within 119 to 121 °C.

Compound `CC(O)Cc1ccc(-c2ccc3cc(C(=O)O)ccc3c2)cc1C12CC3CC(CC(C3)C1)C2` (configuration not stated) registered a melting point of 282 °C.

Compound `COc1cc(C(C)=O)ccc1SCCCCl` displayed a melting point of 53 to 55 °C.

`CCCNCc1ccc(-c2cc3ncnc(Nc4ccc5[nH]ccc5c4)c3s2)cc1` yielded a melting point of 190 to 205 °C.

Regarding `CC1NC(=O)NN=C1c1ccc2sc(=O)n(CC(=O)N3CCN(CCO)CC3)c2c1` (configuration not stated), the melting point was in the range of 248 to 250 °C.

What is called melting point is the temperature, or range, at which the solid turns liquid.
